Columns and labels:
Assay type in all cases: cell-based, Pseudomonas aeruginosa
PAO1 biofilm = test: Crystal violet dye based biofilm inhibition assay, maltose derivatives (Example 1); conditions: for Inhibition of PAO1 biofilm: 110 μM, 24 h, CV assay; for Anti-biofilm activity (inhibition): concentration not given
Description: A crystal violet (CV) assay was used to measure the amount of PAO1 biofilm formed after 24 h of bacterial inoculation. The fluorescence of green fluorescent proteins (GFP) expressed by PAO1-GFP was measured to directly quantify bacterial adhesion on polystyrene black 96 well plates with and without maltose derivatives after 2 h of bacterial inoculation. To evaluate the potential of maltose derivatives as both anti-biofilm and anti-adhesion agents, they were compared to a brominated furanone (BF8) known to inhibit biofilm formation, and two generic surfactants, sodium dodecyl sulfate (SDS) and tetra (ethylene glycol) monododecyl ether (C12EG4OH). […] P. aeruginosa strain PAO1-EGFP that constitutively producing green fluorescent protein was allowed to form biofilm on sterile steel coupons.
Inhibitory effect of all the maltose hydrocarbons on P. aeruginosa biofilm formation was determined by crystal violet dye based biofilm inhibition assays. Overnight culture of wild type P. aeruginosa (PAO1) was sub cultured to an OD600 of 0.01 into the 95:5 M9+:Lb medium. 200 μL of the sub culture was aliquoted into the wells of 96 well polystyrene microtiter plate when it reached the OD600 of 0.1. Predetermined concentrations of the test compounds were then added to the respective wells containing sub culture. Sample plates were wrapped in GLAD Press n′ Seal® followed by incubation under stationary conditions for 24 h at 37° C. After incubation the media was discarded and the plates were washed with water and dried for 1 h at 37° C. The sample plates were stained with 200 μL of 0.1% aqueous solution of crystal violet (CV) and followed by incubation at ambient temperature for 20 min. The CV stain was then discarded and the plates were washed with water. The remaining biofilm adhered stain was re-solubilized with 200 μL of 30% acetic acid. After the stain was dissolved (15 minutes), 100 μL of the solubilized CV was transferred from each well into the corresponding wells of a new polystyrene microtiter dish. Biofilm inhibition was quantified by measuring the OD600 of each well in which a negative control lane wherein no biofilm was formed served as a background and was subtracted out. The percent inhibition was calculated by the comparison of the OD600 for biofilm grown in the absence of compound (control) versus biofilm grown in the presence of compound under identical conditions.
(§1) Predetermined amounts maltose derivatives stock solution was added to the 200 μL bacterial culture in 96 well plate so that the final concentration of the agent reaches the desired values of 1, 5, 10, 20, 40, 85, 113, 140 μM. Biofilm inhibition and dispersion assay was carried as described previously.

24 h old PAO1 biofilm = test: Crystal violet biofilm dispersion assay, maltose derivatives (Example 1); conditions: concentration not given
Description: Chemical dispersion of already formed biofilm is often more relevant to medical application, and more challenging than biofilm inhibition assays, for which the agents are introduced at the onset of an experiment. We screened the ability of maltose derivatives at 110 μM to disperse 24 h old biofilm.
PAO1 was allowed to grow for 24 h at 37° C. After 24 h, bacterial culture was pipetted out and replaced with 200 μL of 110 μM maltose hydrocarbons and sterile water (control). After 1 h treatment with maltose hydrocarbons, biofilm was fixed and quantified using crystal violet dye as described above. The amount of dispersed biofilm was determined via comparison of the amount of biofilm at 24 h in the presence of maltose hydrocarbons versus the amount of biofilm in the “no compound” positive control at 24 h (wells with water treatment).
as §1

[1] = test system: rhl quorum sensing system; test: rhl quorum sensing gene reporter assay (prhlI-LVAgfp); conditions: natural autoinducers present
Excerpt: (§2) The ability of the maltoside derivatives to antagonize the two quorum sensing circuits las and/or rhl of P. aeruginosa was investigated by using two reporter strains (PAO1/plasI-LVAgfp, PAO1/prhlI-LVAgfp). These reporter strains produce natural AHL signals, and binding of such signal molecules to the Lux-type receptor proteins ([…]) activates the expression of green fluorescent protein (GFP) encoded by the plasmid.
(§3) One of the recent approach for a nonmicrobicidal control of biofilm aims to develop agents that disrupt bacterial cell-to-cell communication by acting as mimics to the natural molecules (autoinducer) that bind […], which are encoded by las and rhl gene. The binding of these mimics with lasR and rhlR proteins either activates or represses the expression of lasI or rhlI.^6 In gene reporter assay, the expression of lasI and rhlI proteins is quantified by measuring expression of green fluorescent protein (GFP) fused to lasI and rhlI genes.^5 Two reporter strains of Pseudomonas aeruginosa (PAO1/plasI_LVAgfp and PAO1/prhlI_LVAgfp) express green fluorescence protein on activation of las or rhl quorum sensing system. The activation or repression of las or rhl quorum sensing system in PA was tested by various DSHs.
(§4) Strains PAO1/plasI-LVAgfp and PAO1/prhlI-LVAgfp were grown overnight in LB-media that was supplemented with 300 μg/mL carbenicillin and after 16 hours, the bacteria were sub cultured in LB media (supplemented with 300 μg/mL carbenicillin) to OD600 as 0.01. The OD600 was allowed to reach 0.1 and then 200 μL of culture was aliquoted into the wells of 96-well microtiter plate. DSHs were then added to assigned wells at two different concentrations (85 μM and 160 μM). No agent was added to the well for positive control. The plates then incubated at 37° C. for 24 h in a rotary shaking incubator (250 rpm). The culture from each well was then transferred to corresponding wells of a black walled flat-bottom, 96-well plate (μClear, Greiner-One 655096). The fluorescence and OD absorbance in each well was measured by Synergy 2 multi-mode microplate reader with aGen5 data analysis software. […] Fluorescence was measured at an excitation wavelength of 500 nm and an emission wavelength of 540 nm.
(§5) For an antagonist assay, overnight culture of P. aeruginosa PAO1/plasI-LVAgfp (las system) or PAO1/prhlI-LVAgfp (rhl system) in LB broth (supplemented with 300 μg/mL carbenicillin) was grown from a single colony on a LB agar plate supplemented with 300 μg/mL carbenicillin. […] The fluorescence and OD absorbance in each well was measured by Synergy 2 multi-mode microplate reader with Gen5 data analysis software. […] Fluorescence was measured at an excitation wavelength of 500 nm and an emission wavelength of 540 nm. […]

[2] = test system: las quorum sensing system; test: las quorum sensing gene reporter assay (plasI-LVAgfp); conditions: natural autoinducers present
Excerpt: as §2, §3, §4, §5

In the case of `CCCCCCCCCCCCOCCOCCOCCOCCO` [C12EG4OH, tetra (ethylene glycol) monododecyl ether, reference compound], the “Inhibition of PAO1 biofilm” value (PAO1 biofilm) is reported as “did not show any noticeable biofilm inhibition”, the “Anti-biofilm activity (inhibition)” value (PAO1 biofilm) is reported as “did not show any anti-biofilm activities” and the “Anti-biofilm activity (dispersion)” value (24 h old PAO1 biofilm) is reported as “did not show any anti-biofilm activities”.

With `CCCCCCCCCCCCOS(=O)(=O)[O-].[Na+]` [SDS, sodium dodecyl sulfate, reference compound] the “Inhibition of PAO1 biofilm” value (PAO1 biofilm) was “did not show any noticeable biofilm inhibition”, the “Anti-biofilm activity (inhibition)” value (PAO1 biofilm) was “did not show any anti-biofilm activities” and the “Anti-biofilm activity (dispersion)” value (24 h old PAO1 biofilm) was “did not show any anti-biofilm activities”.

`CC(C)CCCC(C)CCCC(C)CCO[C@H]1O[C@H](CO)[C@@H](O[C@@H]2O[C@H](CO)[C@@H](O)[C@H](O)[C@H]2O)[C@H](O)[C@H]1O` (stereo partly drawn) [SFαC (13), saturated farnesyl-α-cellobioside] was tested, and the “Change of GFP fluorescence, rhl reporter strain PAO1/prhlI-LVAgfp (antagonist assay)” value [1] was “neither SFβC (12) nor SFαC (13) caused a significant change in the fluorescence”, the “Change of GFP fluorescence, rhl reporter strain PAO1/prhlI-LVAgfp (antagonist assay)” value ([1]; listed as 13: SFαC) was “no significant change in the fluorescence” and the “Change of GFP fluorescence, las reporter strain PAO1/plasI-LVAgfp (antagonist assay)” value [2] was “neither SFβC (12) nor SFαC (13) caused a significant change in the fluorescence”. For the same molecule, the “Change of GFP fluorescence, las reporter strain PAO1/plasI-LVAgfp (antagonist assay)” value ([2]; listed as 13: SFαC) was “no significant change in the fluorescence”.

In the case of `CC(C)CCCC(C)CCCC(C)CCO[C@@H]1O[C@H](CO)[C@@H](O[C@@H]2O[C@H](CO)[C@@H](O)[C@H](O)[C@H]2O)[C@H](O)[C@H]1O` (stereo partly drawn) [SFβC (12), saturated famesyl-β-cellobioside], the “Change of GFP fluorescence, rhl reporter strain PAO1/prhlI-LVAgfp (antagonist assay)” value [1] is reported as “neither SFβC (12) nor SFαC (13) caused a significant change in the fluorescence”, the “Change of GFP fluorescence, rhl reporter strain PAO1/prhlI-LVAgfp (antagonist assay)” value ([1]; listed as 12: SFβC) is reported as “no significant change in the fluorescence” and the “Change of GFP fluorescence, las reporter strain PAO1/plasI-LVAgfp (antagonist assay)” value [2] is reported as “neither SFβC (12) nor SFαC (13) caused a significant change in the fluorescence”. For the same molecule, the “Change of GFP fluorescence, las reporter strain PAO1/plasI-LVAgfp (antagonist assay)” value ([2]; listed as 12: SFβC) was “no significant change in the fluorescence”.
